# Measured values from patent US7423010B2, “Nonporous microparticle-prodrug conjugates for treatment of infection” (Oregon Health & Science University, priority 1994, dated 2008).
# System: murine NIH 3T3 cells
# Assay: Growth inhibitory effects of prodrugs on NIH 3T3 cells in culture, with or without esterase-containing brain homogenate
# Type: cell-based
# Protocol: The antifolate drug methotrexate was conjugated with a variety of polar lipid carriers via specific linker moieties having specific reactive functional groups. […] The compounds were tested for their growth inhibitory effects on murine NIH 3T3 cells growing in cell culture. […] […] In a second set of experiments was included in the growth media an amount of a brain homogenate containing an enzymatically-active esterase.
structure (smiles),measurement,setting,value
"CN(Cc1cnc2nc(N)nc(N)c2n1)c1ccc(C(=O)N[C@@H](CCC(=O)O)C(=O)O)cc1 [Mtx, methotrexate]",# cells/plate,"drug/FBS, cells incubated 1 hour at 37° C., cell growth and survival determined 70 hours after drug addition",0.16 × 10^6 cells/plate
same,# cells/plate,"drug/FBS, cells incubated 2 hours at 37° C., cell growth and survival determined 72 hours after drug addition",0.13 × 10^6 cells/plate
same,# cells/plate,"drug/brain extract, cells incubated 1 hour at 37° C., cell growth and survival determined 70 hours after drug addition",0.09 × 10^6 cells/plate
same,# cells/plate,"drug/brain extract, cells incubated 2 hours at 37° C., cell growth and survival determined 72 hours after drug addition",0.06 × 10^6 cells/plate
